“And” between values parts separate entries of the source, which are not always exact repeats. Equal entries are not always repeated. Where two headings read alike, the source gives them in different places. Blank lines part the entries; values can stand above or below the molecule they belong to.
What was measured:
physchem = settings: for auto-decomposition of salts (in words): salts in D2O; for CO release rate relative to CORCB-1: acid forms
Procedure: The kinetics of compound decomposition was followed by observing the ratio of the amount of free amine group to the original compound using ^1H NMR. For instance, Hexamethylenetetramine carboxyborane (CORCB-1) in D2O at the concentration of 12 mg/mL was incubated at 37° C. in the standard NMR tube. ^1H NMR spectra were obtained at different time points to study the kinetics of product formation. […] The ratio of integrated peaks were used for determining the percent of each species present and plotted as a function of time to show the kinetics of auto-decomposition.
^1H, ^11B, and ^13C NMR spectra were recorded at different time points to study the kinetics as well as to observe transformation of CORCB-1 into the products.
In order to determine whether CO is produced in physiological condition, CORCB acid forms were dissolved in aqueous solution at neutral pH. The solution was then subjected to incubation at 37° C. for extended period of time. For studies using NMR, CORCBs were dissolved in D2O. The kinetics of CORCB molecules breaking down to produce CO is determined by taking ^1H NMR spectra at various time points (FIG. 3).
CORCB sodium and ammonium salts were also tested for decomposition by using ^1H NMR spectroscopy. Samples were set up as in Example 1 and rate of decomposition measured (FIG. 4).

[1] = CO released on auto-decomposition in water at 37° C., head space measured with CO meter; type: physicochemical; settings: for CO release rate at 24 hours, CO meter, Autodecomposition / CO release (in words), CO meter / % CO liberated at 24 hours by CO meter: 37° C., 24 hours; for Rate of % CO released by CORCBs, Autodecomposition / Rate of % CO released by CORCB sodium salts, Autodecomposition: per 24 hour
Procedure: (§1) A test to confirm that CO is one of the decomposition products from CORCBs is done by utilizing commercially available CO meter. Four mole of the compounds at the concentrations of 6-12 mg/mL in aqueous solution was incubated at 37° C. in a sealed vessel with 50 mL gas space. CO meter was used to read the concentration of liberated CO gas from the solution. Measurement by CO meter in ppm, after converting to the micromole amount, was used for calculating the percent CO released based on the original amount of compound.
CO liberated from the molecules and coming out to the head space are detected and quantified by using CO meter.

[2] = Decomposition (amine release) in the presence of H2O2 monitored by 1H NMR; type: physicochemical; settings: for Decomposition rate at 24 hours, 1H NMR, With 1.5x H2O2: 1.5 equivalents H2O2, 37° C.
Procedure: (§2) The two tested are the common ROS formed naturally in the cells—a non-radical hydrogen peroxide (H2O2) and Fenton reagent which is a more reactive hydroxyl radical (.OH) formed from Fe^2+ and H2O2. Four mole of CORCB compounds were mixed in an aqueous solution with ROS and incubated in a sealed vessel. At respective times, the head space air was injected into the meter to read the amount of CO produced. For analysis by NMR spectroscopy, the reaction mixture was prepared in NMR tube in D2O solvent and incubated for the amount of time indicated.
The reaction with H2O2 is slow-acting, therefore, NMR spectroscopy can be used for monitoring the rate.

[3] = CO released in the presence of H2O2, CO meter; type: physicochemical; settings: for CO released with 3 equivalents H2O2: 3 equivalents H2O2, 12 hours at 37° C. (FIG. 9); for Rate of % CO released by CORCBs, With H2O2: H2O2 equivalents not given
Procedure: as §1, §2

[4] = Solubility in water / D2O; settings: water or D2O
[5] = CO released in the presence of Fenton reagent (hydroxyl radical), CO meter; type: physicochemical; settings: per 5 minutes
Procedure: as §1
as §2, with “All amine carboxyboranes express a faster CO release rate when incubated with the reactive oxygen species. The” for “The”, “indicated. While some CORCBs have increased amount of CO produced when treated with 3 times equivalents of H2O2, CORCB-1 produces similar or less amount of CO. In every sample, either acid or salt form, the hydroxyl radical extracts the amount of CO to a much higher magnitude within a very short amount of time.” for “indicated.”

RAW264.7 cells = assay: Cytotoxicity / cell viability, Cell Titer Blue assay
[6] = system: fibroblast tumor cells (Hs 895.T) and normal fibroblast cells (Hs 895.Sk); settings: human, 48 h, 1 mM
Procedure: (§3) Cells were seeded at the density of 3×10^3 cells per well in 96-well plate with different concentrations of CORCBs in DMEM media without FBS, and incubated at 37° C. with 5% CO2 for 2 days.

[7] = system: normal human skin fibroblast cells (Hs 895.Sk)
Procedure: This was tested by using a chemotherapy drug, imatinib, in normal human skin fibroblast cells (Hs 895.Sk). The cultures were treated with 20 μM and 40 μM concentration of imatinib as controls to see their toxicity. Samples with mixtures of CORCB-1 and imatinib were also incubated and cell viability was determined on 2, 4, and 6 days. Media was exchanged every 2 days with fresh reagents.

[8] = system: normal fibroblast cells (Hs 895.Sk); assay: Cell viability in DMEM without FBS, Cell Titer Blue, normal cells; settings: 2 mM, 48 hours
Procedure: as §3

[9] = 24 hours, 1.5 equivalents H2O2, 37° C.

SMILES: CC12CC3CC(C)(C1)CC([NH2+][BH2-]C(=O)[O-])(C3)C2.[Na+] [Na-CORCB-4, Memantinecarboxyborane sodium salt]
Decomposition rate at 24 hours, 1H NMR, Autodecomposition (physchem; 37° C.): not measurable
auto-decomposition of salts (in words) (physchem; 37° C., listed as Sodium salt of CORCB-4, sodium salt): insignificant amounts of decomposition
auto-decomposition of salts (in words) (physchem; 37° C., listed as sodium salt of CORCB-4, sodium salt): does not decompose in measurable amount
CO release rate at 24 hours, CO meter, Autodecomposition [1]: 0.06%
% decomposition / free amine released by 1H NMR with H2O2 ([2]; 1.5 equivalents H2O2, 24 hours, sodium salt): 96.4% and ~100%
Decomposition rate at 24 hours, 1H NMR, With 1.5x H2O2 [2]: 96.40%
% CO produced by CO meter with H2O2 ([3]; 1.5 equivalents H2O2, 24 hours): 1.6%
CO release rate at 24 hours, CO meter, With 1.5x H2O2 [3, 9]: 1.60%
solubility in water [4]: soluble in water

SMILES: C[N+](C)(C)[BH2-]C(=O)O [CORCB-3, trimethylamine carboxyborane]
CO release rate relative to CORCB-1 (physchem; D2O, 37° C.): much slower CO release rates than CORCB-1
rate of auto-decomposition (physchem; as stated in Example 10): ~3 % per day
CO release (in words), CO meter [1]: negligible
Rate of % CO released by CORCBs, Autodecomposition [1]: 0.13 ± 0.01%
Decomposition rate at 24 hours, 1H NMR, With 1.5x H2O2 [2]: 44.50%
CO released with 3 equivalents H2O2 [3]: about 10%
CO release rate at 24 hours, CO meter, With 1.5x H2O2 [3, 9]: 2.70%
Rate of % CO released by CORCBs, With H2O2 ([3]; per 24 hour): 18.73 ± 0.24%
Rate of % CO released by CORCBs, With Fenton Reagent [5]: 76.64 ± 1.33%
cytotoxicity / cell growth (in words) (RAW264.7 cells; 0.5-10 mM (up to 10 mM), 24 hours): not toxic at the levels tested
cell viability after the TNF-α assay (in words) (RAW264.7 cells; same cells as TNF-α assay): all cells remain viable

SMILES: O=C([O-])[BH2-][n+]1ccccc1.[Na+] [Na-CORCB-2]
Decomposition rate at 24 hours, 1H NMR, Autodecomposition (physchem; 37° C.): 0.46%
CO release rate at 24 hours, CO meter, Autodecomposition [1]: 0.36%
Rate of % CO released by CORCB sodium salts, Autodecomposition [1]: 0.36 ± 0.13%
Rate of % CO released by CORCB sodium salts, With H2O2 ([3]; sodium salts, per 24 hour): 12.66 ± 0.21%
Rate of % CO released by CORCB sodium salts, With Fenton Reagent [5]: 43.46 ± 0.73%

SMILES: O=C([O-])[BH2-][N+]12CN3CN(CN(C3)C1)C2.[Na+] [Na-CORCB-1]
% decomposed at 24 hours by 1H NMR (physchem; 37° C.): 33.1%
Decomposition rate at 24 hours, 1H NMR, Autodecomposition (physchem; 37° C.): 33.20%
% CO liberated at 24 hours by CO meter [1]: 33%
CO release rate at 24 hours, CO meter, Autodecomposition [1]: 33.10%
Rate of % CO released by CORCB sodium salts, Autodecomposition [1]: 33.12 ± 0.33%
Rate of % CO released by CORCB sodium salts, With H2O2 [3]: 11.99 ± 0.19%
Rate of % CO released by CORCB sodium salts, With Fenton Reagent [5]: 41.61 ± 0.57%

SMILES: OO [H2O2, hydrogen peroxide, reference compound]
viability (RAW264.7 cells; 1 mM, after 24 hours, untreated cells = 100%): 44%

SMILES: NC12CC3CC(CC(C3)C1)C2 [Amantadine, reference compound]
cells left (viability) [6]: about 20%

SMILES: C1N2CN3CN1CN(C2)C3 [HMTA, hexamethylenetetramine, reference compound]
cytotoxicity at 2 mM (in words) (RAW264.7 cells; 2 mM, 24 hours): most cells losing viability

SMILES: N.O=C(O)[BH2-][n+]1ccccc1 [NH4-CORCB-2]
Decomposition rate at 24 hours, 1H NMR, Autodecomposition (physchem; 37° C.): 0.03%
CO release rate at 24 hours, CO meter, Autodecomposition [1]: not measurable

SMILES: N.O=C(O)[BH2-][N+]12CN3CN(CN(C3)C1)C2 [NH4-CORCB-1]
Decomposition rate at 24 hours, 1H NMR, Autodecomposition (physchem; 37° C.): 26.40%
CO release rate at 24 hours, CO meter, Autodecomposition [1]: 28.70%

SMILES: Cc1ccc(NC(=O)c2ccc(CN3CCN(C)CC3)cc2)cc1Nc1nccc(-c2cccnc2)n1 [imatinib]
cell viability with 20 μM imatinib (in words) ([7]; 20 μM, by 6 days): killed
cell viability with 40 μM imatinib (in words) ([7]; 40 μM, at 4 days): lose their viability

SMILES: O=C([O-])[BH2-][NH2+]C12CC3CC(CC(C3)C1)C2.[Na+] [Na-CORCB-6, Amantadine carboxyborane sodium salt]
Decomposition rate at 24 hours, 1H NMR, Autodecomposition (physchem; 37° C.): not measurable
CO release rate at 24 hours, CO meter, Autodecomposition [1]: 0.16%
Decomposition rate at 24 hours, 1H NMR, With 1.5x H2O2 [2]: 36.90%
CO release rate at 24 hours, CO meter, With 1.5x H2O2 [3, 9]: 0.80%
viability of normal fibroblast cells (in words) [8]: increasing the percent viability of normal fibroblast cells

SMILES: C[N+](C)(C)[BH2-]C(=O)O [Na-CORCB-3]
Decomposition rate at 24 hours, 1H NMR, Autodecomposition (physchem; 37° C.): not measurable
auto-decomposition of salts (in words) (physchem; 37° C.): insignificant amounts of decomposition
CO release rate at 24 hours, CO meter, Autodecomposition [1]: not measurable
Rate of % CO released by CORCB sodium salts, Autodecomposition [1]: 0.14 ± 0.02%
Rate of % CO released by CORCB sodium salts, With H2O2 ([3]; sodium salts, per 24 hour): 7.41 ± 0.16%
Rate of % CO released by CORCB sodium salts, With Fenton Reagent [5]: 33.46 ± 0.90%

SMILES: CC12CC3CC(C)(C1)CC([NH2+][BH2-]C(=O)O)(C3)C2.N [NH4-CORCB-4]
Decomposition rate at 24 hours, 1H NMR, Autodecomposition (physchem; 37° C.): 12.80%
decomposition in 12 days (physchem; ammonium salt, 12 days, 37° C.): about 13%
CO release rate at 24 hours, CO meter, Autodecomposition [1]: not soluble
solubility in water [4]: soluble in water

% decomposed at 24 hours by 1H NMR (physchem; 37° C.): 11.3%
Decomposition rate at 24 hours, 1H NMR, Autodecomposition (physchem; 37° C.): 11.30%
time to decompose to completion (physchem; D2O, 37° C.): 12 days
% CO liberated at 24 hours by CO meter [1]: 12.3%
CO release rate at 24 hours, CO meter, Autodecomposition [1]: 12.30%
SMILES: CC(=O)Nc1ccc(OC(=O)B[N+]23CN4CN(CN(C4)C2)C3)cc1 [CORCB-1-TY, hexamethylenetetramine carboacetaminophenborane]

SMILES: O=C(O)B[n+]1ccccc1
Decomposition rate at 24 hours, 1H NMR, Autodecomposition (physchem; 37° C.): 0.40%
CO release rate relative to CORCB-1 (physchem; D2O, 37° C.): much slower CO release rates than CORCB-1
CO release rate at 24 hours, CO meter, Autodecomposition [1]: 3%
Rate of % CO released by CORCBs, Autodecomposition [1]: 2.99 ± 0.06%
Decomposition rate at 24 hours, 1H NMR, With 1.5x H2O2 [2]: 37.50%
CO released with 3 equivalents H2O2 [3]: about 10%
CO release rate at 24 hours, CO meter, With 1.5x H2O2 [3, 9]: 1.00%
Rate of % CO released by CORCBs, With H2O2 ([3]; per 24 hour): 20.22 ± 0.35%
Rate of % CO released by CORCBs, With Fenton Reagent [5]: 72.64 ± 2.57%

SMILES: CN1CCC[C@H]1c1ccc[n+](BC(=O)O)c1
% decomposed at 24 hours by 1H NMR (physchem; 37° C.): 1.0%
Decomposition rate at 24 hours, 1H NMR, Autodecomposition (physchem; 37° C.): 1%
CO release rate relative to CORCB-1 (physchem; D2O, 37° C.): much slower CO release rates than CORCB-1
% CO liberated at 24 hours by CO meter [1]: 0.86%
CO release (in words), CO meter [1]: much slower rate than the others
CO release rate at 24 hours, CO meter, Autodecomposition [1]: 0.86%
Decomposition rate at 24 hours, 1H NMR, With 1.5x H2O2 [2]: 35.90%
CO release rate at 24 hours, CO meter, With 1.5x H2O2 [3]: 0.50%

SMILES: C[C@]12CC3CC([NH2+][BH2-]C(=O)O)(C1)C[C@@](C)(C3)C2 [CORCB-4, memantine carboxyborane]
Decomposition rate at 24 hours, 1H NMR, Autodecomposition (physchem; 37° C.): not soluble
CO release rate at 24 hours, CO meter, Autodecomposition [1]: not soluble
solubility in water [4]: low solubility in water
